Laboratory results from patent US11690810B2, “Combination treatment of bacterial infection” (The Chinese University of Hong Kong, priority 2018, dated 2023).
Read-outs that look alike come from different tables or passages of the source.

Key:
[1] = system: S. aureus SA-1199B (NorA efflux pump overexpressed); assay: MIC and checkerboard (FIC) assay; conditions: for MIC / MIC90 / MIC99: Staphylococcus aureus; for MIC99: read-out: MIC 99.9
[2] = system: S. aureus SA-APH2″-AAC6′ (APH2), resistant to gentamicin; assay: MIC and checkerboard (FIC) assay; conditions: for MIC / MIC90 / MIC99: Staphylococcus aureus; for MIC99: read-out: MIC 99.9
[3] = system: S. aureus SA-RN4220-pUL5054 (RN4220); assay: MIC and checkerboard (FIC) assay; conditions: Staphylococcus aureus; for MIC99: read-out: MIC 99.9
CA-MRSA strain ST30 = assay: MIC and checkerboard (FIC) assay; type: cell-based, Staphylococcus aureus; conditions: Staphylococcus aureus, MRSA, ST30
[4] = system: S. aureus SA-APH3′ (APH3), resistant to kanamycin; assay: MIC and checkerboard (FIC) assay; conditions: Staphylococcus aureus; for MIC99: read-out: MIC 99.9
MRSA SA-ST239 = assay: MIC and checkerboard (FIC) assay; conditions: for MIC / MIC90 / MIC99: Staphylococcus aureus, MRSA; for MIC99: read-out: MIC 99.9
[5] = system: S. aureus SA-ANT4′ (ANT4), resistant to fusidic acid; assay: MIC and checkerboard (FIC) assay; conditions: for MIC / MIC90 / MIC99: Staphylococcus aureus; for MIC99: read-out: MIC 99.9
[6] = system: adherence of MRSA strain JE-2 to fibrinogen; assay: Fibrinogen-binding adherence assay (crystal violet); type: cell-based, Staphylococcus aureus; conditions: varying concentrations
[7] = system: S. aureus ATCC25923 (methicillin sensitive); assay: MIC and checkerboard (FIC) assay; conditions: Staphylococcus aureus; for MIC90: ATCC25923; for MIC99: ATCC25923, read-out: MIC 99.9
[8] = system: internalization of MRSA strain JE-2 by HaCat keratinocytes; assay: Internalization of S. aureus by HaCaT keratinocytes; type: cell-based, Staphylococcus aureus
[9] = system: bacterial aggregation of MRSA JE-2; assay: Aggregation assay of MRSA JE-2; type: cell-based, Staphylococcus aureus; conditions: JE-2; varying concentrations
[10] = system: adherence of MRSA strain JE-2 to HaCat keratinocytes; assay: Bacterial adherence to HaCaT keratinocytes; type: cell-based, Staphylococcus aureus; conditions: varying concentrations of baicalein
[11] = system: panel of laboratory MRSA strains; assay: MIC and combination tests, panel of laboratory strains; conditions: tanshinone highest tested concentration 128 μg/ml
[12] = system: NorA overexpressed S. aureus; conditions: NorA overexpressed S. aureus, cited from earlier work
[13] = system: clinical fusidic acid resistant MRSA strain 82356; assay: MIC and checkerboard (FIC) assay; type: cell-based, Staphylococcus aureus
[14] = system: clinical fusidic acid resistant MRSA strain 96591; assay: MIC and checkerboard (FIC) assay; type: cell-based, Staphylococcus aureus
[15] = system: clinical fusidic acid resistant MRSA strain 73621; assay: MIC and checkerboard (FIC) assay; type: cell-based, Staphylococcus aureus
[16] = read-out: Minimum inhibitory concentration to compound (MIC)
[17] = read-out: Activity (MIC, μg/ml)

C=C(C)C(CC=C(C)C)Cc1c(O)cc(OC)c(C(=O)/C=C/c2ccc(O)cc2OC)c1O (racemic) [WQD-164, (E)-1-(2,4-dihydroxy-6-methoxy-3-(5-methyl-2-(prop-1-en-2-yl)hex-4-en-1-yl)phenyl)-3-(4-hydroxy-2-methoxyphenyl)prop-2-en-1-one]
MIC ([1]; read-out: Minimum inhibitory concentration to compound (MIC), 1199B′, Table 8): 64 µg/mL
FIC ([2]; APH2″-AAC6′, ECG with WQD-164): 0.50
MIC combine ([2]; APH2″-AAC6′, ECG with WQD-164): 8 µg/mL
MIC ([2]; read-out: MIC alone): 16 µg/mL
MIC [2, 16]: 16 µg/mL
MIC [3, 16]: 64 µg/mL
MIC (CA-MRSA strain ST30; Table 8, read-out: Minimum inhibitory concentration to compound (MIC)): 128 µg/mL
MIC (CA-MRSA strain ST30; [17]): 128 µg/mL
MIC [4, 16]: 32 µg/mL
FIC (MRSA SA-ST239; ST239, ECG with WQD-164): 0.50
MIC combine (MRSA SA-ST239; ST239, ECG with WQD-164): 4 µg/mL
MIC (MRSA SA-ST239; [17]): 32 µg/mL
MIC (MRSA SA-ST239; read-out: MIC alone): 32 µg/mL
MIC [5, 16]: 32 µg/mL

O=c1cc(-c2ccccc2)oc2cc(O)c(O)c(O)c12 [Baicalein, 5,6,7-trihydroxyflavone]
FIC ([1]; 1199B, Baicalein with ECG): 0.0625
MIC combine ([1]; 1199B, Baicalein with ECG): 8 µg/mL
MIC90 [1]: 128 µg/mL
MIC99 [1]: > 512 µg/mL
MIC ([1]; read-out: MIC alone, 1199B, Baicalein and ECG section): 512 µg/mL
fibrinogen-binding adherence [6]: minimal reduction in adherence
MIC90 [7]: 128 µg/mL
MIC99 [7]: > 512 µg/mL
decrease in the internalization as compared to the WT strain ([8]; 4 μg/ml (baicalein)): 2.7 fold
internalization lower as compared to the mutant ΔSrtA ([8]; 64 μg/ml of baicalein): 1.9 fold
reduction in internalization as compared to the WT strain ([8]; 64 μg/ml of baicalein): 5 fold
MIC90 [2]: 128 µg/mL
MIC99 [2]: > 512 µg/mL
MIC90 [3]: 64 µg/mL
MIC99 [3]: > 512 µg/mL
bacterial aggregation [9]: reduced
average decrease in the adherence of the WT strain to HaCaT cells [10]: 3.5 fold
MIC90 [4]: 64 µg/mL
MIC99 [4]: > 512 µg/mL
MIC90 (MRSA SA-ST239): 128 µg/mL
MIC99 (MRSA SA-ST239): > 512 µg/mL
MIC90 [5]: 128 µg/mL
MIC99 [5]: > 512 µg/mL
activity against the tested MRSA strains when used alone [11]: relatively weak

COc1ccc2cc3[n+](cc2c1OC)CCc1cc2c(cc1-3)OCO2 [Berberine]
MIC90 [1]: 256 µg/mL
MIC99 [1]: > 512 µg/mL
antimicrobial action (MIC) potentiated ([12]; with multidrug pump inhibitor 5′-methoxyhydnocarpin): 2 µg/mL
antimicrobial action (MIC) alone ([12]; without pump inhibitor): 32 µg/mL
fibrinogen-binding adherence [6]: dose-dependent reduction of adherence
MIC90 [7]: 256 µg/mL
MIC99 [7]: > 512 µg/mL
MIC90 [2]: 256 µg/mL
MIC99 [2]: > 512 µg/mL
MIC90 [3]: 256 µg/mL
MIC99 [3]: > 512 µg/mL
bacterial aggregation [9]: reduced
MIC90 [4]: 128 µg/mL
MIC99 [4]: > 512 µg/mL
MIC90 (MRSA SA-ST239): 256 µg/mL
MIC99 (MRSA SA-ST239): > 512 µg/mL
MIC90 [5]: 256 µg/mL
MIC99 [5]: > 512 µg/mL
activity against the tested MRSA strains when used alone [11]: relatively weak

C=C(C)C(CC=C(C)C)Cc1c(OC)cc(OC)c(C(=O)/C=C/c2ccc(OCOC)cc2OCOC)c1OC (stereo not drawn) [Compound A]
MIC [3, 17]: > 256 µg/mL

C=C(C)C(CC=C(C)C)Cc1c(OC)cc(OC)c(C(=O)/C=C/c2ccc(O)cc2O)c1OC (stereo not drawn) [Compound B]
MIC [3, 17]: 64 µg/mL

CC(=O)O[C@H]1C[C@@]2(C)[C@@H](C[C@@H](O)[C@H]3[C@@]4(C)CC[C@@H](O)[C@@H](C)[C@@H]4CC[C@@]32C)/C1=C(\CCC=C(C)C)C(=O)O [Fusidic acid, fusidic acid, reference compound]
FIC ([13]; 82356, ECG+Kur+Fus): 0.03
MIC combine ([13]; 82356, ECG+Kur+Fus): 1 µg/mL
MIC ([13]; Staphylococcus aureus, MRSA, 82356 (fusidic acid resistant), read-out: MIC alone): 32 µg/mL
FIC ([14]; 96591, ECG+Kur+Fus): 0.03
MIC combine ([14]; 96591, ECG+Kur+Fus): 1 µg/mL
MIC ([14]; Staphylococcus aureus, MRSA, 96591 (fusidic acid resistant), read-out: MIC alone): 32 µg/mL
FIC ([15]; 73621, ECG+Kur+Fus): 0.03
MIC combine ([15]; 73621, ECG+Kur+Fus): 1 µg/mL
MIC ([15]; Staphylococcus aureus, MRSA, 73621 (fusidic acid resistant), read-out: MIC alone): 32 µg/mL
FIC ([5]; ANT4, ECG+Kur+Fus): 0.125
MIC combine ([5]; ANT4, ECG+Kur+Fus): 4 µg/mL
MIC combine ([5]; ANT4, ECG+Kur+Fus, listed as Fus): 8 µg/mL
MIC ([5]; read-out: MIC alone): 64 µg/mL

O=C(O)c1cc(O)c(O)c(O)c1 [Gallic acid, 3,4,5-trihydroxybenzoic acid]
MIC90 [1]: 512 µg/mL
MIC99 [1]: > 512 µg/mL
MIC90 [7]: 256 µg/mL
MIC99 [7]: > 512 µg/mL
MIC90 [2]: 512 µg/mL
MIC99 [2]: > 512 µg/mL
MIC90 [3]: 512 µg/mL
MIC99 [3]: > 512 µg/mL
MIC90 [4]: 512 µg/mL
MIC99 [4]: > 512 µg/mL
MIC90 (MRSA SA-ST239): 256 µg/mL
MIC99 (MRSA SA-ST239): > 512 µg/mL
MIC90 [5]: 512 µg/mL
MIC99 [5]: > 512 µg/mL
activity against the tested MRSA strains when used alone [11]: relatively weak
